In article PMC6691788, “Design and synthesis of phthalazine-based compounds as potent anticancer agents with potential antiangiogenic activity via VEGFR-2 inhibition” (Journal of Enzyme Inhibition and Medicinal Chemistry, 2019):

Experiments:
EKVX = assay: NCI 60 cell panel SRB screen; type: cell-based, human; conditions: for GI50 / IC (TGI) / LC50: Homo sapiens, 5 log dose; for LC50: 48 h; for percent cell growth promotion: single dose 10 μM
K-562 = assay: NCI 60 cell panel SRB screen; type: cell-based; conditions: Homo sapiens, K562; for GI50 / IC (TGI) / CC50: K-562, 5 log dose; for CC50: 48 h, read-out: LC50 (the source's name); for activity at 10 µM: K-562, single dose 10 μM, read-out: percent cell growth promotion
SK-OV-3 = assay: NCI 60 cell panel SRB screen; type: cell-based; conditions: Homo sapiens; for GI50 / IC (TGI) / CC50: SK-OV-3, 5 log dose; for CC50: 48 h, read-out: LC50 (the source's name); for activity at 10 µM: SK-OV-3, single dose 10 μM, read-out: percent cell growth promotion
T-47D = assay: NCI 60 cell panel SRB screen; type: cell-based; conditions: Homo sapiens, T47D; for IC (TGI): read-out: TGI; for activity at 10 µM: read-out: percent cell growth promotion; for CC50: T-47D, 5 log dose, 48 h, read-out: LC50 (the source's name)
full NCI 60 cell panel = assay: NCI 60 cell panel SRB screen, whole panel; type: cell-based, human; conditions: Homo sapiens, 60 cell, NCI 5-log dose, full 60 cell panel; read-out: GI50 values, range over the tested cell lines
SK-MEL-2 = assay: NCI 60 cell panel SRB screen; type: cell-based; conditions: for GI50 / IC (TGI) / CC50: Homo sapiens; for IC (TGI): read-out: TGI; for CC50: SK-MEL-2, 5 log dose, 48 h, read-out: LC50 (the source's name); for percent cell growth promotion: SK-MEL-2, single dose 10 μM
LOX IMVI = assay: NCI 60 cell panel SRB screen; type: cell-based; conditions: Homo sapiens; for CC50: 5 log dose, 48 h, read-out: LC50 (the source's name); for IC (TGI): read-out: TGI; for activity at 10 µM: read-out: percent cell growth promotion
IGROV1 = assay: NCI 60 cell panel SRB screen; type: cell-based; conditions: Homo sapiens, IGROV-1; for GI50 / IC (TGI) / CC50: IGROV1, 5 log dose; for CC50: 48 h, read-out: LC50 (the source's name); for activity at 10 µM: IGROV1, single dose 10 μM, read-out: percent cell growth promotion
SF-539 = assay: NCI 60 cell panel SRB screen; type: cell-based, human; conditions: for GI50 / IC (TGI) / CC50: Homo sapiens, SF-539, 5 log dose; for CC50: 48 h, read-out: LC50 (the source's name); for percent cell growth promotion: SF-539, single dose 10 μM
MDA-MB-435 = assay: NCI 60 cell panel SRB screen; type: cell-based; conditions: Homo sapiens; for GI50: MDA-MB-435; for IC (TGI): MDA-MB-435, read-out: TGI; for activity at 10 µM: MDA-MB-435, read-out: percent cell growth promotion; for CC50: MDA-MB-435, 5 log dose, 48 h, read-out: LC50 (the source's name)
OVCAR-5 = assay: NCI 60 cell panel SRB screen; type: cell-based; conditions: Homo sapiens; for GI50 / IC (TGI) / CC50: OVCAR-5, 5 log dose; for CC50: 48 h, read-out: LC50 (the source's name); for activity at 10 µM: OVCAR-5, single dose 10 μM, read-out: percent cell growth promotion

## O=C(Nc1ccc(Cl)cc1)Nc1ccc(Nc2nncc3ccccc23)cc1 [Compound 6b, 1–(4-Chlorophenyl)-3–(4-(phthalazin-1-ylamino)phenyl)urea]
EKVX
  GI50: 2950 nM
  IC (TGI): 25.3 µM
  LC50: > 100 µM
K-562
  GI50: 1680 nM
  IC (TGI): 26.4 µM
  CC50: > 100 µM
  activity at 10 µM: 9.49%
SK-OV-3
  GI50: 3050 nM
  IC (TGI): 17.7 µM
  CC50: > 100 µM
  activity at 10 µM: 38.2%
T-47D
  GI50: 1030 nM
  IC (TGI): 5.35 µM
  activity at 10 µM: -6.32%
  CC50: 79.3 µM
Full NCI 60 cell panel
  GI50: 0.15 to 8.41 µM
SK-MEL-2
  GI50: 2700 nM
  IC (TGI): 7.7 µM
  CC50: 44.8 µM
LOX IMVI
  GI50: 820 nM
  CC50: 53.2 µM
  IC (TGI): 14.6 µM
  activity at 10 µM: 33.6%
IGROV1
  GI50: 2520 nM
  IC (TGI): 30.7 µM
  CC50: > 100 µM
  activity at 10 µM: 39.7%
SF-539
  GI50: 2880 nM
  IC (TGI): 11.5 µM
  CC50: 36.6 µM
MDA-MB-435
  GI50: 2140 nM
  IC (TGI): 9.42 µM
  activity at 10 µM: 13.7%
  CC50: 30.9 µM
OVCAR-5
  GI50: 4.15 µM
  IC (TGI): 34.3 µM
  CC50: > 100 µM
  activity at 10 µM: 85.6%

## Cc1nnc(Nc2ccc(NC(=O)Nc3ccc(Cl)cc3)cc2)c2ccccc12 [Compound 6e, 1–(4-Chlorophenyl)-3–(4-(4-methylphthalazin-1-ylamino)phenyl)urea]
EKVX
  GI50: 3470 nM
  IC (TGI): 17.9 µM
  LC50: 87.8 µM
K-562
  GI50: 2200 nM
  IC (TGI): 4.67 µM
  CC50: 9.92 µM
  activity at 10 µM: -16.7%
SK-OV-3
  GI50: 2610 nM
  IC (TGI): 6.59 µM
  CC50: 30.7 µM
  activity at 10 µM: 66.4%
T-47D
  GI50: 2060 nM
  IC (TGI): 5.08 µM
  activity at 10 µM: 8.43%
  CC50: 56.4 µM
Full NCI 60 cell panel
  GI50: 0.15 to 8.41 µM
SK-MEL-2
  GI50: 2220 nM
  IC (TGI): 4.59 µM
  CC50: 9.5 µM
LOX IMVI
  GI50: 1750 nM
  CC50: 6.11 µM
  IC (TGI): 3.27 µM
  activity at 10 µM: -27.3%
IGROV1
  GI50: 3980 nM
  IC (TGI): 19.5 µM
  CC50: > 100 µM
  activity at 10 µM: 62%
SF-539
  GI50: 1610 nM
  IC (TGI): 3.32 µM
  CC50: 6.83 µM
MDA-MB-435
  GI50: 1730 nM
  IC (TGI): 3.43 µM
  activity at 10 µM: -40%
  CC50: 6.81 µM
OVCAR-5
  GI50: 2.1 µM
  IC (TGI): 4.99 µM
  CC50: 18.7 µM
  activity at 10 µM: 72.8%

## O=C(Nc1ccccc1)Nc1ccc(Oc2nnc(Cl)c3ccccc23)cc1 [Compound 13a, 1–(4-(4-Chlorophthalazin-1-yloxy)phenyl)-3-phenylurea]
EKVX
  GI50: 2310 nM
  IC (TGI): 12.1 µM
  LC50: > 25 µM
  percent cell growth promotion: 29.96%
K-562
  GI50: 6210 nM
  IC (TGI): > 25 µM
  CC50: > 25 µM
  activity at 10 µM: 51.6%
SK-OV-3
  GI50: 1460 nM
  IC (TGI): 5.51 µM
  CC50: 16.6 µM
  activity at 10 µM: -0.5%
T-47D
  GI50: 630 nM
  IC (TGI): 10.8 µM
  activity at 10 µM: -18%
  CC50: > 25 µM
Full NCI 60 cell panel
  GI50: 0.15 to 8.41 µM
SK-MEL-2
  GI50: 3900 nM
  IC (TGI): 13.2 µM
  CC50: > 25 µM
  percent cell growth promotion: 9.53%
LOX IMVI
  GI50: 3460 nM
  CC50: 13.4 µM
  IC (TGI): 6.08 µM
  activity at 10 µM: 32.1%
IGROV1
  GI50: 3320 nM
  IC (TGI): 7.92 µM
  CC50: 18.9 µM
  activity at 10 µM: 37.2%
SF-539
  GI50: 2810 nM
  IC (TGI): 6.4 µM
  CC50: 14.6 µM
  percent cell growth promotion: -22.02%
MDA-MB-435
  GI50: 7540 nM
  IC (TGI): > 25 µM
  activity at 10 µM: 48.6%
  CC50: > 25 µM
OVCAR-5
  GI50: 5.61 µM
  IC (TGI): 15.3 µM
  CC50: > 25 µM
  activity at 10 µM: 86.3%

## COc1cccc(NCc2nnc(Nc3ccc(Cl)cc3)c3ccccc23)c1 [Compound 16d, N-(4-Chlorophenyl)-4-((3-methoxyphenylamino)methyl)phthalazin-1-amine]
EKVX
  GI50: 580 nM
  IC (TGI): 6.4 µM
  LC50: > 25 µM
  percent cell growth promotion: -0.28%
K-562
  GI50: 1490 nM
  IC (TGI): 13.1 µM
  CC50: > 25 µM
  activity at 10 µM: 2.2%
SK-OV-3
  GI50: 1130 nM
  IC (TGI): 8.19 µM
  CC50: > 25 µM
  activity at 10 µM: -11.9%
T-47D
  GI50: 640 nM
  IC (TGI): 6.56 µM
  activity at 10 µM: -8.49%
  CC50: > 25 µM
Full NCI 60 cell panel
  GI50: 0.15 to 8.41 µM
SK-MEL-2
  GI50: 700 nM
  IC (TGI): 3.98 µM
  CC50: 11 µM
  percent cell growth promotion: -34.44%
LOX IMVI
  GI50: 1110 nM
  CC50: 12.8 µM
  IC (TGI): 4.83 µM
  activity at 10 µM: -58.7%
IGROV1
  GI50: 900 nM
  IC (TGI): 6.3 µM
  CC50: > 25 µM
  activity at 10 µM: 1.51%
SF-539
  GI50: 3070 nM
  IC (TGI): 6.56 µM
  CC50: 14 µM
  percent cell growth promotion: -10.19%
MDA-MB-435
  GI50: 730 nM
  IC (TGI): 4.38 µM
  activity at 10 µM: -10.3%
  CC50: 12 µM
OVCAR-5
  GI50: 3.38 µM
  IC (TGI): 11.8 µM
  CC50: > 25 µM
  activity at 10 µM: 8.44%

## Clc1ccc(Nc2nnc(COc3ccccc3)c3ccccc23)cc1 [Compound 17a, N-(4-Chlorophenyl)-4-(phenoxymethyl)phthalazin-1-amine]
EKVX
  GI50: 670 nM
  IC (TGI): 7.32 µM
  LC50: > 25 µM
  percent cell growth promotion: 6.53%
K-562
  GI50: 1850 nM
  IC (TGI): 11.9 µM
  CC50: > 25 µM
  activity at 10 µM: 2.77%
SK-OV-3
  GI50: 2380 nM
  IC (TGI): 9.96 µM
  CC50: > 25 µM
  activity at 10 µM: 9.17%
T-47D
  GI50: 880 nM
  IC (TGI): 8.44 µM
  activity at 10 µM: -5.86%
  CC50: > 25 µM
Full NCI 60 cell panel
  GI50: 0.15 to 8.41 µM
SK-MEL-2
  GI50: 970 nM
  IC (TGI): 5.13 µM
  CC50: 15.1 µM
  percent cell growth promotion: -26.47%
LOX IMVI
  GI50: 1290 nM
  CC50: 11.9 µM
  IC (TGI): 4.85 µM
  activity at 10 µM: -62%
IGROV1
  GI50: 1140 nM
  IC (TGI): 6.37 µM
  CC50: > 25 µM
  activity at 10 µM: 16.1%
SF-539
  GI50: 3120 nM
  IC (TGI): 7.58 µM
  CC50: 18.4 µM
  percent cell growth promotion: 8.42%
MDA-MB-435
  GI50: 1010 nM
  IC (TGI): 5.31 µM
  activity at 10 µM: -3.33%
  CC50: 16.2 µM
OVCAR-5
  GI50: 3.88 µM
  IC (TGI): 15.4 µM
  CC50: > 25 µM
  activity at 10 µM: 23.1%
